According to article PMC6642140, “Boosting NAD^+ with a small molecule that activates NAMPT” (Nature Communications, 2019):

Legend:
Type in all cases: biochemical
[1] = molecular target: T1, NAMPT (nicotinamide phosphoribosyltransferase) (Homo sapiens, UniProt P43490); test: NMN production LC-MS/MS assay with […] NAD+ (feedback inhibition)
T1 construct: recombinant, N-terminal His tag removed with thrombin

[2] = molecular target: T1, NAMPT (nicotinamide phosphoribosyltransferase); test: LC-MS/MS of the reversible reaction; suppresses pHisNAMPT in western blot and blunts P3 production
[3] = molecular target: T1, NAMPT (nicotinamide phosphoribosyltransferase); test: dose-dependent protein thermal shift and stimulation of NMN production
[4] = molecular target: T1, NAMPT (nicotinamide phosphoribosyltransferase); test: NMN production fluorescence assay at […] compound (slight inhibition)
[5] = molecular target: T1, NAMPT (nicotinamide phosphoribosyltransferase); test: spin desalting column with LC-MS detection of bound compound; EC50 from NMN production activation assay
Text: spin desalting column with LC-MS detection of bound compound; EC50 from NMN production activation assay on NAMPT (nicotinamide phosphoribosyltransferase) | When NAMPT and SBI-797812 were mixed and applied to the column, SBI-797812 was detected in the column eluent

T1 sequence (P43490 whole entry): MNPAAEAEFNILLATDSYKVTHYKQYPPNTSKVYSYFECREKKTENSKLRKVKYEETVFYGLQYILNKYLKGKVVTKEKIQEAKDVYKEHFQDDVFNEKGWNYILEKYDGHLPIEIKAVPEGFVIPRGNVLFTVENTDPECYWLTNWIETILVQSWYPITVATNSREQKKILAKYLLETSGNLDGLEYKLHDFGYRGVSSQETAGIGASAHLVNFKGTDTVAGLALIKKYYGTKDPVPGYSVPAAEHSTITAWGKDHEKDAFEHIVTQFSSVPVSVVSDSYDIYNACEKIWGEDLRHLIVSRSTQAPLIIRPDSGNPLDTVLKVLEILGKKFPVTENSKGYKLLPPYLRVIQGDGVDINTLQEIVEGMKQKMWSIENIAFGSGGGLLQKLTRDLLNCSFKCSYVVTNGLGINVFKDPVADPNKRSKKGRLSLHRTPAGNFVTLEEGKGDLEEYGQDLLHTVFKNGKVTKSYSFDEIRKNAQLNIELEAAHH

NC(=O)c1ccc[n+]([C@@H]2O[C@H](COP(=O)([O-])OP(=O)(O)OC[C@H]3O[C@@H](n4cnc5c(N)ncnc54)[C@H](O)[C@@H]3O)[C@@H](O)[C@H]2O)c1 [NAD^+]
NMN production LC-MS/MS assay with 250 μM NAD+ (feedback inhibition) [1]: SBI-797812 relieved NAMPT inhibition mediated by NAD^+ (Fig. 2e).

NC(=O)c1ccc[n+]([C@@H]2O[C@H](COP(=O)([O-])O)[C@@H](O)[C@H]2O)c1 [NMN]
LC-MS/MS of the reversible reaction; suppresses pHisNAMPT in western blot and bl [2]: While the pHisNAMPT band was suppressed by NMN or PP, NAM or PRPP had no effect

CCOC(=O)c1ccc(NC(=O)NCc2ccncc2)cc1 [SBI-136892]
dose-dependent protein thermal shift and stimulation of NMN production [3]: SBI-136892 (Fig. 1b), dose-dependently increased the NAMPT Tm (Supplementary Fig. 1a) and stimulated NAMPT-mediated NMN production

O=C(NCc1ccccn1)Nc1ccc(S(=O)(=O)N2CC3CCC(C2)O3)cc1 [SBI-796950]
NMN production fluorescence assay at 2 μM compound (slight inhibition) [4]: The SBI-797812 isomer with the 2-pyridyl group, SBI-796950 (Fig. 1b), slightly inhibited NMN production (Fig. 1c).

O=C(NCc1ccncc1)Nc1ccc(S(=O)(=O)N2CC3CCC(C2)O3)cc1 [SBI-797812]
EC50 [5]: 370 ± 60 nM
